Experimental data as given in the NIST ThermoML archive (doi:10.1021/je800646h).
Numbers after ± are expanded uncertainties.

Settings: Crystal; DTA

Triple point temperature: 453.4 ± 1.1 K
Compound: Nc1ccc(O)c2c1C(=O)c1c(O)cc(Br)c(N)c1C2=O [1,5-diaminobromo-4,8-dihydroxyanthraquinone]
